The IC50 is the concentration at which inhibition is half-maximal. Higher therefore signals weaker potency.

Each structure is given as a SMILES string.

This note sets out measurements from patent publication US9096565B2, “Inhibitors of histone deacetylase” (MethylGene Inc., priority 2007, dated 2015).

In the test the target is one or more of HDAC-4, HDAC-5, HDAC-6, HDAC-7, HDAC-8, HDAC-9, HDAC-10 and HDAC-11. The test is described as follows: Inhibition of histone deacetylase enzymatic activity (summary statement over isoforms). It counts as biochemical. Particulars: Table 3, selected examples; HDAC isoform not given. Put shortly: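 Activity was measured as deacetylation of the fluorogenic substrate Boc-Lys(trifluoroacetyl)-AMC over 20-30 min at 37 °C, after a 5 min room-temperature preincubation of enzyme with compound. Trypsin (1 mg/mL) with a reference HDAC inhibitor ended the reaction.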
`CC(=O)Nc1cccc(C(C(=O)NO)c2ccccc2)c1` (stereo not shown) [Compound 2-52, 2-(3-acetamidophenyl)-N-hydroxy-2-phenylacetamide] came in with an IC50 of 1000 to 15000 nM.
For `O=C(NO)C(c1ccccc1)c1cccc(OCCc2ccccc2)c1` (stereo not shown) [Compound 2-7, N-hydroxy-2-(3-phenethoxyphenyl)-2-phenylacetamide] the value was 1000 to 15000 nM.
For `CC(C)NC(=O)N1CCCN(C(C(=O)NO)c2ccccc2)CC1` (stereo not shown) [Compound 2-31, 4-(2-(hydroxyamino)-2-oxo-1-phenylethyl)-N-isopropyl-1,4-diazepane-1-carboxamide] the value was 1000 to 15000 nM; for `CN(CCc1ccccc1)c1ccc(C(C(=O)NO)c2ccccc2)cc1` (stereo not shown) [Compound 6-40, N-hydroxy-2-(4-(methyl(phenethyl)amino)phenyl)-2-phenylacetamide], less than 1000 nM; for `Cc1cc(C)nc(N2CCN(C(C(=O)NO)c3ccccc3)CC2)n1` (stereo not shown) [Compound 5-80, 2-(4-(4,6-dimethylpyrimidin-2-yl)piperazin-1-yl)-N-hydroxy-2-phenylacetamide], less than 1000 nM.
For `O=C(NO)C(c1ccccc1)c1ccc(NCC2CCCCC2)cc1` (stereo not shown) [Compound 2-82, 2-(4-(cyclohexylmethylamino)phenyl)-N-hydroxy-2-phenylacetamide], the IC50 was less than 1000 nM.
For `CCCCOc1cccc(C(C(=O)NO)c2ccccc2)c1` (stereo not shown) [Compound 2-5, 2-(3-butoxyphenyl)-N-hydroxy-2-phenylacetamide] the value was 1000 to 15000 nM.
`O=C(NO)C(c1ccccc1)c1ccc(NS(=O)(=O)c2cccs2)cc1` (stereo not shown) [Compound 2-90, N-hydroxy-2-phenyl-2-(4-(thiophene-2-sulfonamido)phenyl)acetamide]: the IC50 is less than 1000 nM.
As for `O=C(NO)C(c1ccccc1)c1cccc(OCc2cccc(Cl)c2)c1` (stereo not shown) [Compound 3-10, 2-(3-(3-chlorobenzyloxy)phenyl)-N-hydroxy-2-phenylacetamide], the IC50 was less than 1000 nM.
For `O=C(CN(Cc1ccccc1)S(=O)(=O)c1ccccc1)NO` [Compound 1-5, 2-(N-benzylphenylsulfonamido)-N-hydroxyacetamide] the value was 1000 to 15000 nM; for `O=C(NO)C(c1ccccc1)c1cccnc1` (stereo not shown) [Compound 5-15, N-hydroxy-2-phenyl-2-(pyridin-3-yl)acetamide], less than 1000 nM; for `COCCOCCOc1cccc(C(C(=O)NO)c2ccccc2)c1` (stereo not shown) [Compound 3-89, N-hydroxy-2-(3-(2-(2-methoxyethoxy)ethoxy)phenyl)-2-phenylacetamide], less than 1000 nM.
For `CN(C)c1ccc(C(C(=O)NO)c2ccccc2)cc1` (stereo not shown) [Compound 1-29, 2-(4-(dimethylamino)phenyl)-N-hydroxy-2-phenylacetamide] the value was less than 1000 nM.
For `Cn1cncc1C#Cc1ccc(C(C(=O)NO)c2ccccc2)cc1` (stereo not shown) [Compound 5-79, N-hydroxy-2-(4-((1-methyl-1H-imidazol-5-yl)ethynyl)phenyl)-2-phenylacetamide] the value was less than 1000 nM.
With `O=C(NO)C(c1ccccc1)N1CCN(S(=O)(=O)Cc2ccccc2)CC1` (stereo not shown) [Compound 5-87, 2-(4-(benzylsulfonyl)piperazin-1-yl)-N-hydroxy-2-phenylacetamide], the IC50 lay in the range of 1000 to 15000 nM.
For `O=C(NO)C(c1ccccc1)n1cccc1` (stereo not shown) [Compound 1-13, N-hydroxy-2-phenyl-2-(1H-pyrrol-1-yl)acetamide] the value was 1000 to 15000 nM; for `CC(=O)N1CCN(c2cccc(C(C(=O)NO)c3ccccc3)c2)CC1` (stereo not shown) [Compound 3-75, 2-(3-(4-acetylpiperazin-1-yl)phenyl)-N-hydroxy-2-phenylacetamide], less than 1000 nM.
The molecule `O=C(NO)C(c1ccccc1)c1ccc(NCc2ccccn2)cc1` (stereo not shown) [Compound 3-81, N-hydroxy-2-phenyl-2-(4-(pyridin-2-ylmethylamino)phenyl)acetamide] registered an IC50 of less than 1000 nM.
For `Cc1ccccc1C(C(=O)NO)c1ccc(N2CCOCC2)cc1` (stereo not shown) [Compound 6-19, N-hydroxy-2-(4-morpholionphenyl)-2-o-tolylacetamide] the value was less than 1000 nM; for `O=C(NO)C(c1ccccc1)N1CCC(Oc2ccccc2)CC1` (stereo not shown) [Compound 1-43, N-hydroxy-2-(4-phenoxypiperidin-1-yl)-2-phenylacetamide], less than 1000 nM.
For `O=C(NO)C(c1ccccc1)c1ccc(N2CCN(c3ccccn3)CC2)cc1` (stereo not shown) [Compound 5-66, N-hydroxy-2-phenyl-2-(4-(4-(pyridin-2-yl)piperazin-1-yl)phenyl)acetamide] the value was less than 1000 nM; for `O=C(NO)C(c1ccccc1)c1ccc(O)cc1` (stereo not shown) [Compound 5-36, N-hydroxy-2-(4-hydroxyphenyl)-2-phenylacetamide], less than 1000 nM.
For `COc1ccc(COc2cccc(C(C(=O)NO)c3ccccc3)c2)cc1` (stereo not shown) [Compound 3-6, N-hydroxy-2-(3-(4-methoxybenzyloxy)phenyl)-2-phenylacetamide] the value was less than 1000 nM.
Molecule `O=C(NO)C(C(=O)Nc1cccc(C(F)(F)F)c1)c1ccccc1` (stereo not shown) [Compound 1-33, N1-hydroxy-2-phenyl-N3-(3-(trifluoromethyl)phenyl)malonamide] yielded an IC50 of less than 1000 nM.
On to `CCOc1ccc(C(C(=O)NO)c2ccccc2)cc1` (stereo not shown) [Compound 3-44, 2-(4-ethoxyphenyl)-N-hydroxy-2-phenylacetamide], for which the IC50 is less than 1000 nM.
For `O=C(NO)C(c1ccccc1)c1cccc(N2CCC(N3CCCC3)CC2)c1` (stereo not shown) [Compound 3-76, N-hydroxy-2-phenyl-2-(3-(4-(pyrrolidin-1-yl)piperidin-1-yl)phenyl)acetamide] the value was less than 1000 nM; for `O=C(NO)C(c1ccccc1)N1CCN(S(=O)(=O)c2ccccc2)CC1` (stereo not shown) [Compound 5-8, N-hydroxy-2-phenyl-2-(4-(phenylsulfonyl)piperazin-1-yl)acetamide], less than 1000 nM; for `O=C(NO)C(Oc1ccc(-c2ccccc2)cc1)c1ccccc1` (stereo not shown) [Compound 5-14, 2-(biphenyl-4-yloxy)-N-hydroxy-2-phenylacetamide], 1000 to 15000 nM.
For `O=C(NO)C(c1ccccc1)c1cccc(N2CCN(c3ccc(F)cc3)CC2)c1` (stereo not shown) [Compound 3-78, 2-(3-(4-(4-fluorophenyl)piperazin-1-yl)phenyl)-N-hydroxy-2-phenylacetamide] the value was 1000 to 15000 nM.
In turn, `O=C(NO)C(O)(c1ccccc1)c1ccccc1` [Compound 1-28, N,2-dihydroxy-2,2-diphenylacetamide] returned an IC50 of less than 1000 nM.
For `CCc1ccc(-c2ccc(C(C(=O)NO)c3ccccc3)cc2)cc1` (stereo not shown) [Compound 2-111, 2-(4′-ethylbiphenyl-4-yl)-N-hydroxy-2-phenylacetamide] the value was less than 1000 nM; for `O=C(Nc1ccc(C(C(=O)NO)c2ccccc2)cc1)c1ccc(F)cc1` (stereo not shown) [Compound 2-61, 4-fluoro-N-(4-(2-(hydroxyamino)-2-oxo-1-phenylethyl)phenyl)benzamide], less than 1000 nM.
For `O=C(NO)C(c1ccccc1)c1ccc(OCCc2ccccc2)cc1` (stereo not shown) [Compound 2-12, N-hydroxy-2-(4-phenethoxyphenyl)-2-phenylacetamide] the value was less than 1000 nM.
For `O=C(NO)C(c1ccccc1)c1ccc(OC/C=C/c2ccccc2)cc1` (stereo not shown) [Compound 3-85, (E)-2-(4-(cinnamyloxy)phenyl)-N-hydroxy-2-phenylacetamide] the value was less than 1000 nM; for `COc1cccc(NC(=O)N2CCCN(C(C(=O)NO)c3ccccc3)CC2)c1` (stereo not shown) [Compound 2-37, 4-(2-(hydroxyamino)-2-oxo-1-phenylethyl)-N-(3-methoxyphenyl)-1,4-diazepane-1-carboxamide], 1000 to 15000 nM; for `COc1ccc(-c2ccc(C(C(=O)NO)c3ccccc3)cc2)cc1OC` (stereo not shown) [Compound 2-114, 2-(3′,4′-dimethoxybiphenyl-4-yl)-N-hydroxy-2-phenylacetamide], less than 1000 nM.
In turn, `C=CCCOc1ccc(C(C(=O)NO)c2ccccc2)cc1` (stereo not shown) [Compound 3-49, 2-(4-(but-3-enyloxy)phenyl)-N-hydroxy-2-phenylacetamide] showed an IC50 of less than 1000 nM.
For `O=C(Nc1ccc(C(C(=O)NO)c2ccccc2)cc1)c1ccnc(Cl)c1` (stereo not shown) [Compound 2-74, 2-chloro-N-(4-(2-(hydroxyamino)-2-oxo-1-phenylethyl)phenyl)isonicotinamide] the value was less than 1000 nM.
Molecule `O=C(NO)C(c1ccccc1)N1Cc2ccccc2C1` (stereo not shown) [Compound 1-22, N-hydroxy-2-(isoindolin-2-yl)-2-phenylacetamide] displayed an IC50 of 1000 to 15000 nM.
For `O=C(NO)C(c1ccccc1)c1ccc(Nc2ccccc2)cc1` (stereo not shown) [Compound 3-80, N-hydroxy-2-phenyl-2-(4-(phenylamino)phenyl)acetamide] the value was less than 1000 nM.
`O=C(NO)C(c1ccccc1)c1nc2ccc(-c3cccs3)cc2[nH]1` (stereo not shown) [Compound 1-20, N-hydroxy-2-phenyl-2-(6-(thiophen-2-yl)-1H-benzo[d]imidazol-2-yl)acetamide]: the IC50 is less than 1000 nM.
For `Cc1ccsc1C(=O)Nc1ccc(C(C(=O)NO)c2ccccc2)cc1` (stereo not shown) [Compound 2-65, N-(4-(2-(hydroxyamino)-2-oxo-1-phenylethyl)phenyl)-3-methylthiophene-2-carboxamide] the value was less than 1000 nM; for `Cn1cnc(S(=O)(=O)N2CCCN(C(C(=O)NO)c3ccccc3)CC2)c1` (stereo not shown) [Compound 2-39, N-hydroxy-2-(4-(1-methyl-1H-imidazol-4-ylsulfonyl)-1,4-diazepan-1-yl)-2-phenylacetamide], 1000 to 15000 nM.
For `CC(C)c1ccc(SC(C(=O)NO)c2ccccc2)cc1` (stereo not shown) [Compound 2-21, N-hydroxy-2-(4-isopropylphenylthio)-2-phenylacetamide] the value was 1000 to 15000 nM.
For `COc1ccc2sc(SC(C(=O)NO)c3ccccc3)nc2c1` (stereo not shown) [Compound 5-50, N-hydroxy-2-(5-methoxybenzo[d]thiazol-2-ylthio)-2-phenylacetamide] the value was less than 1000 nM.
On to `O=C(NO)C(Oc1ccc2c(c1)CCC2)c1ccccc1` (stereo not shown) [Compound 2-16, 2-(2,3-dihydro-1H-inden-5-yloxy)-N-hydroxy-2-phenylacetamide], for which the IC50 was 1000 to 15000 nM.
